Data reported in patent publication US10085990B2, “Tricyclic compounds as modulators of TNF-α synthesis and as PDE4 inhibitors” (vTv Therapeutics LLC, priority 2008, dated 2018).
Where a name gives a salt, the structure may show the parent alone.

System: TNF synthesis in human PBMC
Assay: Human PBMC TNF Synthesis Assay
Type: cell-based
Settings: LPS-stimulated human PBMC, overnight incubation, TNF ELISA; read-out: TNF inhib.
Protocol: Human PBMC TNF Synthesis Assay
Human PBMC were obtained by from a healthy human donor leuko pak. Typically, all donors were pre-screened for STD, HIV and have been given a physical by a physician. One to two ampoules were thawed at 37° C. and then resuspended in 45 to 85 mL of RPMI+10% FBS to a final concentration of 2.5×10^6 cells/mL. Resuspended cells were filtered to remove any large clumps.
Prepare compounds for addition to cells: All compounds were DMSO stocks at 20 mM. Working stock for cell testing were prepared as 4× concentrated material in RPMI+10% FBS. Compounds were added to a polypropylene block and then diluted with the appropriate amount of RPMI+10% FBS. Typically 2.6 μL of 20 mM stock was diluted to 650 μL final volume to yield an 80 μM starting concentration in the stocks. RPMI was added to DMSO stock by pipetting into the tube or block. The compounds were then serial diluted with RPMI+10% FBS. The final DMSO concentrations were not greater than 0.5% in the assay.
Compounds were added to the cells as 4× working stock. 50 μL of compound was prepared above is added to the cells and re-equilibrated in a humidified 5% CO2 incubator at 37° C. for 30 minutes.
A stock of LPS was prepared using RPMI+10% FBS. To prepare the stock, 2.8 μL of LPS (5 mg/mL; Sigma Cat #L3024) was added to 35 mL of media. 50 μL of the LPS in media was added to the cells. Control cultures without LPS received only RPMI+10% FBS. After an overnight incubation at 37° C., the cell culture supernatant was harvested and stored in a polypropylene 96 well plate.
Samples were tested for TNF as per the manufacturer's instructions (TNF ELISA; R&D Systems, Cat #DY210). The samples were serially diluted with PBS+1% BSA to the appropriate dilution condition for the cell prep, typically a 1:4 or 1:6 dilution.

| SMILES | IC50 |
| --- | --- |
| COc1cccc2c1ncc1c(=O)n(-c3cccc(Cl)c3)c(=O)n(C3CCN(C(=O)c4ccccc4)CC3)c12 [Example 91, 1-(1-Benzoyl-piperidin-4-yl)-3-(3-chloro-phenyl)-7-methoxy-1H-pyrimido[5,4-c]quinoline-2,4-dione] | 1 nM |
| COc1cccc2c1ncc1c(=O)n(-c3cccc(Cl)c3)c(=O)n(C3CCN(S(=O)(=O)C(C)C)CC3)c12 [Example 93, 3-(3-Chloro-phenyl)-7-methoxy-1-[1-(propane-2-sulfonyl)-piperidin-4-yl]-1H-pyrimido[5,4-c]quinoline-2,4-dione] | 0.4 nM |
| COc1cccc2c1ncc1c(=O)n(-c3cccc(Cl)c3)c(=O)n(C3CCN(S(=O)(=O)N(C)C)CC3)c12 [Example 94, 4-[3-(3-Chloro-phenyl)-7-methoxy-2,4-dioxo-3,4-dihydro-2H-pyrimido[5,4-c]quinolin-1-yl]-piperidine-1-sulfonic acid dimethylamide] | 0.4 nM |
| COc1cccc2c1ncc1c(=O)n(-c3cccc(Cl)c3)c(=O)n(C3CCN(S(=O)(=O)c4ccccc4)CC3)c12 [Example 95, 1-(1-Benzenesulfonyl-piperidin-4-yl)-3-(3-chloro-phenyl)-7-methoxy-1H-pyrimido[5,4-c]quinoline-2,4-dione] | 1 nM |
| CCNC(=O)N1CCC(n2c(=O)n(-c3cccc(Cl)c3)c(=O)c3cnc4c(OC)cccc4c32)CC1 [Example 97, 4-[3-(3-Chloro-phenyl)-7-methoxy-2,4-dioxo-3,4-dihydro-2H-pyrimido[5,4-c]quinolin-1-yl]-piperidine-1-carboxylic acid ethylamide] | 0.6 nM |
| COc1cccc2c1ncc1c(=O)n(-c3cccc(Cl)c3)c(=O)n(C3CCN(C(=O)NC(C)C)CC3)c12 [Example 98, 4-[3-(3-Chloro-phenyl)-7-methoxy-2,4-dioxo-3,4-dihydro-2H-pyrimido[5,4-c]quinolin-1-yl]-piperidine-1-carboxylic acid isopropylamide] | 0.3 nM |
| COc1cccc2c1ncc1c(=O)n(-c3ccccc3Cl)c(=O)n(C3CCC(C)CC3)c12 (stereo not shown) [Example 99, 3-(2-Chloro-phenyl)-7-methoxy-1-(4-methyl-cyclohexyl)-1H-pyrimido[5,4-c]quinoline-2,4-dione] | 20 nM |
| COc1cccc2c1ncc1c(=O)n(-c3cccc(Cl)c3)c(=O)n([C@H]3CC[C@H](C(=O)O)CC3)c12 [Example 103, Trans-4-[3-(3-Chloro-phenyl)-7-methoxy-2,4-dioxo-3,4-dihydro-2H-pyrimido[5,4-c]quinolin-1-yl]-cyclohexanecarboxylic acid.hydrochloride] | 1 nM |
| COc1cccc2c1ncc1c(=O)n(-c3cccc(Cl)c3)c(=O)n(C3CCCCC3)c12 [Example 106, 3-(3-Chloro-phenyl)-1-cyclohexyl-7-methoxy-1H-pyrimido[5,4-c]quinoline-2,4-dione] | 4 nM |
| COc1cccc2c1ncc1c(=O)n(-c3ccc4c(c3)OCO4)c(=O)n(C3CCN(C(=O)OC(C)(C)C)CC3)c12 [Example 107, 4-(3-Benzo[1,3]dioxol-5-yl-7-methoxy-2,4-dioxo-3,4-dihydro-2H-pyrimido[5,4-c]quinolin-1-yl)-piperidine-1-carboxylic acid tert-butyl ester] | 1 nM |
| COc1cccc2c1ncc1c(=O)n(-c3ccc4c(c3)OCO4)c(=O)n(C3CCNCC3)c12 [Example 108, 3-Benzo[1,3]dioxol-5-yl-7-methoxy-1-piperidin-4-yl-1H-pyrimido[5,4-c]quinoline-2,4-dione.dihydrochloride] | 450 nM |
| COc1cccc2c1ncc1c(=O)n(-c3cccc(SC)c3)c(=O)n(C3CCCC3)c12 [Example 111, 1-Cyclopentyl-7-methoxy-3-(3-methylsulfanyl-phenyl)-1H-pyrimido[5,4-c]quinoline-2,4-dione] | 74 nM |
| COc1cccc2c1ncc1c(=O)n(-c3cccc(S(C)(=O)=O)c3)c(=O)n(C3CCCC3)c12 [Example 112, 1-Cyclopentyl-3-(3-methanesulfonyl-phenyl)-7-methoxy-1H-pyrimido[5,4-c]quinoline-2,4-dione] | 280 nM |
